The target in one assay is T1, human NPR1 (Homo sapiens, UniProt P16066).
T1 construct: host or cells: CHO-K1
T1 sequence (P16066 33-1061): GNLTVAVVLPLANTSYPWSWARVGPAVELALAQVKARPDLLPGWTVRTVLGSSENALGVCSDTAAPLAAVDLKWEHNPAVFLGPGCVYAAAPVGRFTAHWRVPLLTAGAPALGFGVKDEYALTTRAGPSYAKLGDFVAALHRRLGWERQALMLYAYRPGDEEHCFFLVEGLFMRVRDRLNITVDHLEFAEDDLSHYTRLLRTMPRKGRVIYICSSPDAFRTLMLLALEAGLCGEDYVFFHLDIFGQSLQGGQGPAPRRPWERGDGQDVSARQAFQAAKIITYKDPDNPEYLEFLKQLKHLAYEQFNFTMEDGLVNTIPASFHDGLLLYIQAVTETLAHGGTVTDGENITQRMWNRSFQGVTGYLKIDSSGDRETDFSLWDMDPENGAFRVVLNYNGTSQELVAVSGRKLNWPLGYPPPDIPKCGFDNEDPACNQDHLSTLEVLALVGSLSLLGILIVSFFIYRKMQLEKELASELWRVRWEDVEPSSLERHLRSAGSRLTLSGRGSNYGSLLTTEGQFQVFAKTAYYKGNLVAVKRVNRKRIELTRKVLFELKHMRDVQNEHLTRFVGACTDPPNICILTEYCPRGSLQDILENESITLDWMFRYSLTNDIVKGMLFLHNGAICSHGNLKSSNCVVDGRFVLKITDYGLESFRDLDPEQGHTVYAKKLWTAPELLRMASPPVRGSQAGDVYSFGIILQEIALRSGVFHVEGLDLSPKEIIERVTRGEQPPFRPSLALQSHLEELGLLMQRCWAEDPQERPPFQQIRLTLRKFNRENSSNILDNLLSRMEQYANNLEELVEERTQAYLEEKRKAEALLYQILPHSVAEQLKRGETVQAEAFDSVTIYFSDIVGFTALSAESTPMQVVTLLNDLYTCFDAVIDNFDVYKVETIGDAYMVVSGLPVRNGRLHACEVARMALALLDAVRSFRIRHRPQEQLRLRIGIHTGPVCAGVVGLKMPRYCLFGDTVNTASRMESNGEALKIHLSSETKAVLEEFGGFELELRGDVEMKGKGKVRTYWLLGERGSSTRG
The assay is described as follows: Cellular cGMP production assay, human NPR1 expressing CHO-K1 cells (CisBio HTRF). It counts as cell-based. Conditions: for AC50: cGMP production, 30 min at 37° C., 12-point dose-response from 30 μM; for Human NPR1 Amax (% of ANP): maximum cGMP production as percentage of the maximum cGMP produced with ANP. In short, it runs like this: (§1)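 12-pt 3-fold dose-response, top 30 μM; buffer PBS + 0.1% BSA + 1 mM IBMX (PDE inhibitor); 30 min, 37 °C. Lyse, add cGMP-d2 + anti-cGMP-cryptate, 1 h RT. Ex 317 / em 665 nm; Delta F converted to cGMP via calibrator standard curve.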

The target in the next assay is monkey NPR1 (Macaca fascicularis, UniProt A0A7N9DBT9). The assay is described as follows: Cellular cGMP production assay, monkey NPR1 expressing CHO-K1 cells (CisBio HTRF). It counts as cell-based. Conditions: for Monkey NPR1 Amax (% of ANP): maximum cGMP production as percentage of the maximum cGMP produced with ANP. In short, it runs like this: as §1
Sequence of monkey NPR1 (A0A7N9DBT9 entry or part of it): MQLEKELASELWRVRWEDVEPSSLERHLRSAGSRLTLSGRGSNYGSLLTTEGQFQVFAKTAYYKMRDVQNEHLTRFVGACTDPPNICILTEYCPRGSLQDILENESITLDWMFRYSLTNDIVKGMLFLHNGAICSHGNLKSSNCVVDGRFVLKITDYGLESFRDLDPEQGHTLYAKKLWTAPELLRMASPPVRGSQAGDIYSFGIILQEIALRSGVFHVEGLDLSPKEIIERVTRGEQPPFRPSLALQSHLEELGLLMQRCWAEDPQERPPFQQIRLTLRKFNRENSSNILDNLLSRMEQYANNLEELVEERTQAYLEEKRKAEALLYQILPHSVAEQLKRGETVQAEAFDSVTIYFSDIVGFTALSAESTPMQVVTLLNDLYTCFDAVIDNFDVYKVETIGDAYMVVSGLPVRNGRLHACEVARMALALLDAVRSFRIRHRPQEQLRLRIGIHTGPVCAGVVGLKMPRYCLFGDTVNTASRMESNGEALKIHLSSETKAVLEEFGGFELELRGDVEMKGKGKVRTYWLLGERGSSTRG
[1] abbreviates: cGMP production, monkey NPR1 CHO-K1 cells, 30 min at 37° C., 12-point dose-response from 30 μM, read-out: Monkey NPR1 AC50.

Each structure is given as a SMILES string. Read-outs that look alike come from different tables or passages of the source.

Regarding `CC[C@H]([C@H]1CC[C@H](CC(=O)O)CC1)N(C)c1nc2c(c(N[C@@H](CN3CCC[C@H](C)C3)c3cnn(C)c3)n1)C[C@H](c1ccccc1)CC2` [Compound 67, 2-((1R,4r)-4-((R)-1-(methyl((R)-4-(((R)-1-(1-methyl-1H-pyrazol-4-yl)-2-((S)-3-methylpiperidin-1-yl)ethyl)amino)-6-phenyl-5,6,7,8-tetrahydroquinazolin-2-yl)amino)propyl)cyclohexyl)acetic acid], the figures for the AC50 at human NPR1 and on monkey NPR1 (setting [1]) were 229 nM and 155 nM, respectively. The “Human NPR1 Amax (% of ANP)” value at human NPR1 is given as 95.228 % of ANP. Further, the “Monkey NPR1 Amax (% of ANP)” value on monkey NPR1 (monkey NPR1 CHO-K1 cells) is recorded as 98.233 % of ANP.

With `CC[C@H]([C@H]1CC[C@H](C(=O)O)CC1)N(C)c1nc2c(c(N[C@@H](CN3CC4CCC3C4)c3cnn(C)c3)n1)C[C@](C)(c1ccccc1)CC2` (stereo partly drawn) [Compound 68, (1R,4r)-4-((1R)-1-(((6R)-4-(((1R)-2-(2-azabicyclo[2.2.1]heptan-2-yl)-1-(1-methyl-1H-pyrazol-4-yl)ethyl)amino)-6-methyl-6-phenyl-5,6,7,8-tetrahydroquinazolin-2-yl)(methyl)amino)propyl)cyclohexane-1-carboxylic acid], at human NPR1, the AC50 came out at 234 nM and the “Human NPR1 Amax (% of ANP)” value is reported as 96.721 % of ANP. Besides, at monkey NPR1 (setting [1]), the AC50 was 95 nM. Further, the “Monkey NPR1 Amax (% of ANP)” value at monkey NPR1 (monkey NPR1 CHO-K1 cells) is 101.066 % of ANP.

As for `CC[C@H](N(C)c1nc2c(c(N[C@@H](CN3C4CCCC3CC4)c3cnn(C)c3)n1)C[C@](C)(c1ccccc1)CC2)C12CC(C(=O)O)(C1)C2` [Compound 69, 3-((1S)-1-(((6R)-4-(((1R)-2-(8-azabicyclo[3.2.1]octan-8-yl)-1-(1-methyl-1H-pyrazol-4-yl)ethyl)amino)-6-methyl-6-phenyl-5,6,7,8-tetrahydroquinazolin-2-yl)(methyl)amino)propyl)bicyclo[1.1.1]pentane-1-carboxylic acid], the AC50 on human NPR1 was 234 nM; on monkey NPR1 it was 220 nM. At human NPR1, the “Human NPR1 Amax (% of ANP)” value is listed as 98.634 % of ANP. Besides, at monkey NPR1 (monkey NPR1 CHO-K1 cells), the “Monkey NPR1 Amax (% of ANP)” value is on record as 100.449 % of ANP.

For `CC[C@H]([C@H]1CC[C@H](C(=O)O)CC1)N(C)c1nc2c(c(N[C@@H](CN3C4CCC3CC4)c3cnn(C)c3)n1)C[C@](C)(c1ccccc1)CC2` [Compound 70, (1R,4r)-4-((R)-1-(((R)-4-(((R)-2-(7-azabicyclo[2.2.1]heptan-7-yl)-1-(1-methyl-1H-pyrazol-4-yl)ethyl)amino)-6-methyl-6-phenyl-5,6,7,8-tetrahydroquinazolin-2-yl)(methyl)amino)propyl)cyclohexane-1-carboxylic acid], at human NPR1, the AC50 worked out at 234 nM and the “Human NPR1 Amax (% of ANP)” value was 97.399 % of ANP. Moreover, at monkey NPR1, the AC50 was found to be 230 nM. Also, the “Monkey NPR1 Amax (% of ANP)” value on monkey NPR1 (monkey NPR1 CHO-K1 cells) is 100.673 % of ANP.

In the case of `CC[C@@H](Nc1nc2c(c(N[C@@H](CN3C4CC5CC(C4)CC3C5)c3cnn(C)c3)n1)C[C@H](c1ccccc1)CC2)[C@H]1CC[C@H](C(=O)O)CC1` [Compound 71, (1R,4r)-4-((R)-1-(((R)-4-(((R)-2-((5R,7R)-2-azaadamantan-2-yl)-1-(1-methyl-1H-pyrazol-4-yl)ethyl)amino)-6-phenyl-5,6,7,8-tetrahydroquinazolin-2-yl)amino)propyl)cyclohexane-1-carboxylic acid], at human NPR1, half-maximal activity (AC50) was put at 237 nM and the “Human NPR1 Amax (% of ANP)” value is listed as 91.827 % of ANP. Moreover, the AC50 on monkey NPR1 (setting [1]) amounted to 78 nM. For the same compound, at monkey NPR1 (monkey NPR1 CHO-K1 cells), the “Monkey NPR1 Amax (% of ANP)” value was 121.791 % of ANP.

Turning to `CC[C@H]([C@H]1CC[C@H](C(=O)O)CC1)N(C)c1nc2c(c(N[C@@H](CN3CCC[C@H](CO)C3)c3cnn(C)c3)n1)C[C@H](c1cccc(F)c1)CC2` [Compound 72, (1R,4r)-4-((R)-1-(((R)-6-(3-fluorophenyl)-4-(((R)-2-((S)-3-(hydroxymethyl)piperidin-1-yl)-1-(1-methyl-1H-pyrazol-4-yl)ethyl)amino)-5,6,7,8-tetrahydroquinazolin-2-yl)(methyl)amino)propyl)cyclohexane-1-carboxylic acid], on human NPR1, the AC50 turned out to be 242 nM and the “Human NPR1 Amax (% of ANP)” value was 99.718 % of ANP. For the same compound, on monkey NPR1 (setting [1]), the AC50 came out at 137 nM. Besides, at monkey NPR1 (monkey NPR1 CHO-K1 cells), the “Monkey NPR1 Amax (% of ANP)” value is 104.824 % of ANP.

`CC[C@@H](Nc1nc2c(c(N[C@@H](CN3CCC[C@H](C)C3)c3scnc3C)n1)C[C@H](c1ccccc1)CC2)[C@H]1CC[C@H](C(=O)O)CC1` [Compound 73, (1R,4r)-4-((R)-1-(((R)-4-(((S)-2-((S)-3-methylpiperidin-1-yl)-1-(4-methylthiazol-5-yl)ethyl)amino)-6-phenyl-5,6,7,8-tetrahydroquinazolin-2-yl)amino)propyl)cyclohexane-1-carboxylic acid]: on human NPR1, the AC50 is 245 nM and the “Human NPR1 Amax (% of ANP)” value is listed as 94.290 % of ANP. Further, the AC50 at monkey NPR1 (setting [1]) is 172 nM. Besides, the “Monkey NPR1 Amax (% of ANP)” value on monkey NPR1 (monkey NPR1 CHO-K1 cells) is given as 99.527 % of ANP.

For the compound `CCC(N(C)c1nc2c(c(N[C@@H](CN3C4CCCC3CCC4)c3cnn(C)c3)n1)C[C@H](c1ccccc1)CC2)C12CC(C(=O)O)(C1)C2` (stereo partly drawn) [Compound 74, 3-(1-(((R)-4-(((R)-2-((1S,5S)-9-azabicyclo[3.3.1]nonan-9-yl)-1-(1-methyl-1H-pyrazol-4-yl)ethyl)amino)-6-phenyl-5,6,7,8-tetrahydroquinazolin-2-yl)(methyl)amino)-1l3-propyl)bicyclo[1.1.1]pentane-1-carboxylic acid], on human NPR1, the activity was half-maximal at 246 nM (AC50) and the “Human NPR1 Amax (% of ANP)” value is listed as 102.182 % of ANP. Also, the concentration at half-maximal activity (AC50) on monkey NPR1 is 167 nM. Also, the “Monkey NPR1 Amax (% of ANP)” value at monkey NPR1 (monkey NPR1 CHO-K1 cells) is given as 117.270 % of ANP.

In the case of `CC[C@H]([C@H]1CC[C@H](C(=O)O)CC1)N(C)c1nc2c(c(N[C@@H](CN3CCC[C@H](C)C3)c3cnn(C)c3)n1)C[C@@H](c1cccc(F)c1)CC2` [Compound 75, (1R,4r)-4-((R)-1-(((S)-6-(3-fluorophenyl)-4-(((R)-1-(1-methyl-1H-pyrazol-4-yl)-2-((S)-3-methylpiperidin-1-yl)ethyl)amino)-5,6,7,8-tetrahydroquinazolin-2-yl)(methyl)amino)propyl)cyclohexane-1-carboxylic acid], on human NPR1, half-maximal activity (AC50) was put at 247 nM and the “Human NPR1 Amax (% of ANP)” value is recorded as 93.803 % of ANP. Further, the concentration at half-maximal activity (AC50) on monkey NPR1 worked out at 162 nM. Further, the “Monkey NPR1 Amax (% of ANP)” value on monkey NPR1 (monkey NPR1 CHO-K1 cells) is listed as 102.588 % of ANP.

Consider `CC[C@@H](Nc1nc2c(c(N[C@@H](CN3CCC[C@H](C)C3)c3cnn(CC)c3)n1)CN(c1cccc(F)c1)CC2)[C@H]1CC[C@H](C(=O)O)CC1` [Compound 76, (1R,4r)-4-((R)-1-((4-(((R)-1-(1-ethyl-1H-pyrazol-4-yl)-2-((S)-3-methylpiperidin-1-yl)ethyl)amino)-6-(3-fluorophenyl)-5,6,7,8-tetrahydropyrido[4,3-d]pyrimidin-2-yl)amino)propyl)cyclohexane-1-carboxylic acid], for which, on human NPR1, the activity was half-maximal at 247 nM (AC50) and the “Human NPR1 Amax (% of ANP)” value is on record as 100.752 % of ANP. Moreover, the concentration at half-maximal activity (AC50) at monkey NPR1 (setting [1]) came out at 147 nM. Also, the “Monkey NPR1 Amax (% of ANP)” value at monkey NPR1 (monkey NPR1 CHO-K1 cells) is given as 100.861 % of ANP.

With `CC[C@@H](N(C)c1nc2c(c(N[C@@H](CN3C4CCCC3CC4)c3cnc(C)s3)n1)C[C@H](c1cccc(F)c1)CC2)C12CC(C(=O)O)(C1)C2` [Compound 77, 3-((1R)-1-(((6R)-4-(((1S)-2-(8-azabicyclo[3.2.1]octan-8-yl)-1-(2-methylthiazol-5-yl)ethyl)amino)-6-(3-fluorophenyl)-5,6,7,8-tetrahydroquinazolin-2-yl)(methyl)amino)propyl)bicyclo[1.1.1]pentane-1-carboxylic acid], at human NPR1, the activity was half-maximal at 249 nM (AC50) and the “Human NPR1 Amax (% of ANP)” value was 95.666 % of ANP. Half-maximal activity on monkey NPR1 (AC50) was put at 134 nM. For the same compound, the “Monkey NPR1 Amax (% of ANP)” value at monkey NPR1 (monkey NPR1 CHO-K1 cells) was 96.715 % of ANP.
